Test results taken from article PMC11359809, “Probing the molecular basis for signal transduction through the Zinc-Activated Channel (ZAC)” (Biochemical pharmacology, 2021).
Positions count from the first letter of the chain named.

Columns and labels:
WT ZAC = target: T1, WT ZAC (Homo sapiens, UniProt Q401N2, A152T); experiment: TEVC in Xenopus oocytes expressing WT ZAC; assay type: cell-based; conditions: TC 100 μM
T1 construct: expressed in transfected cells; host or cells: Xenopus oocytes injected with cRNA (pUNIV vector)
T1 sequence (Q401N2 26-412 A152T): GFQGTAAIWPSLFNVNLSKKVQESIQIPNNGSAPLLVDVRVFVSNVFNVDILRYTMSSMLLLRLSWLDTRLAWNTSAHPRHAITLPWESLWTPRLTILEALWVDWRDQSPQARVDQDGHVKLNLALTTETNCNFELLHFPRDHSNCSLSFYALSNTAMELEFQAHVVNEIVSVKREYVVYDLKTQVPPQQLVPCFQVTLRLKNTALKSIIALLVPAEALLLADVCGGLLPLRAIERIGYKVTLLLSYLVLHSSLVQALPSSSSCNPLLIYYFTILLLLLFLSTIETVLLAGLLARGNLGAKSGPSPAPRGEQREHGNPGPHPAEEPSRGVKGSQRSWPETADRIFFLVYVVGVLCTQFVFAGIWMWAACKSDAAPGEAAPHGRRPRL
Method: (§1) The recordings were performed at room temperature.
(§2) Analysis of the data from the TEVC recordings were performed using Clampfit software version 10.5 (Molecular Devices, Crawley, UK) and GraphPad Prism version 7.0c (GraphPad Software, La Jolla, CA). Unless otherwise stated, the inward currents induced by agonists in oocytes were normalized to the maximal response elicited by a specific agonist (agonist Imax) on each oocyte. Concentration-response and concentration-inhibition curves were fitted in GraphPad Prism by nonlinear regression using the equation for sigmoidal dose-response with variable slope. Each data point represents the mean ± S.E.M. value of recordings performed on at least five oocytes in total from at least two different batches. For the data where statistical analysis was performed, a one-way ANOVA was used. The null hypothesis was rejected at P < 0.05, and the differences between the means were analyzed by Tukey’s multiple comparisons test.

ZAC^L9′A = target: T2, ZAC^L9′A (Homo sapiens, UniProt Q401N2, A152T/L270A); experiment: TEVC in oocytes, ZAC L9′A mutant; assay type: cell-based; conditions: TC 100 μM
T2 construct: expressed in transfected cells; host or cells: Xenopus oocytes injected with cRNA (pUNIV vector)
T2 sequence (Q401N2 26-412 A152T/L270A): T1 sequence (Q401N2 26-412 A152T) with L245A
Method: as §1, §2

ZAC^L9′V = target: T3, ZAC^L9′V (Homo sapiens, UniProt Q401N2, A152T/L270V); experiment: TEVC in oocytes, ZAC L9′V mutant; assay type: cell-based; conditions: TC 100 μM; outward currents compared to WT ZAC and ZAC^L9′A
T3 construct: expressed in transfected cells; host or cells: Xenopus oocytes (cRNA injection, pUNIV vector)
T3 sequence (Q401N2 26-412 A152T/L270V): T1 sequence (Q401N2 26-412 A152T) with L245V
Method: as §1, §2

ZAC^L9′I = target: T4, ZAC^L9′I (Homo sapiens, UniProt Q401N2, A152T/L270I); experiment: TEVC in oocytes, ZAC L9′I mutant; assay type: cell-based; conditions: TC 100 μM; outward currents compared to WT ZAC and ZAC^L9′A
T4 construct: expressed in transfected cells; host or cells: Xenopus oocytes (cRNA injection, pUNIV vector)
T4 sequence (Q401N2 26-412 A152T/L270I): T1 sequence (Q401N2 26-412 A152T) with L245I
Method: as §1, §2

ZAC^L9′T = target: T5, ZAC^L9′T (Homo sapiens, UniProt Q401N2, A152T/L270T); experiment: TEVC in oocytes, ZAC L9′T mutant; assay type: cell-based; conditions: TC 100 μM; outward currents compared to WT ZAC and ZAC^L9′A
T5 construct: expressed in transfected cells; host or cells: Xenopus oocytes (cRNA injection, pUNIV vector)
T5 sequence (Q401N2 26-412 A152T/L270T): T1 sequence (Q401N2 26-412 A152T) with L245T
Method: as §1, §2

[1] = system: ZAC^L9′X mutants (L9′A, L9′V, L9′I, L9′T); experiment: TEVC in oocytes, all four L9′X mutants (collective statement); assay type: cell-based, human; conditions: TC 100 μM; 1 mM Zn^2+; range over all four mutants
Method: as §1, §2
Fig. 8. Functional importance of the Leu9′ residue in ZAC. […] B. Resting membrane potentials (left) and leak currents (right) recorded from oocytes expressing WT ZAC, ZAC^L9′A, ZAC^L9′T, ZAC^L9′V and ZAC^L9′I. Data are given as mean ± S.E.M. values (n = 40–60). C. […]

COc1cc2c3cc1Oc1cc(ccc1O)C[C@@H]1c4c(cc(OC)c(O)c4Oc4ccc(cc4)C[C@@H]3N(C)CC2)CC[N+]1(C)C [TC, tubocurarine]
I100 μM TC (antagonist-evoked current, spontaneous activity) (WT ZAC): small but significant outward currents
I100 μM TC (antagonist-evoked current, spontaneous activity) (ZAC^L9′A): small but significant outward currents
I100 μM TC (antagonist-evoked current, spontaneous activity) (ZAC^L9′V): substantially higher amplitudes
I100 μM TC (antagonist-evoked current, spontaneous activity) (ZAC^L9′I): substantially higher amplitudes
I100 μM TC (antagonist-evoked current, spontaneous activity) (ZAC^L9′T): substantially higher amplitudes
I100 μM TC/(IZn2+ max + I100 μM TC) ratio (degree of spontaneous activity) [1]: 34–40%
